Article PMC11684173 (ACS Omega, 2024)
Residues, ends and D or L forms follow the SMILES beside them. *: point of attachment. Cbz = O=C(OCc1ccccc1)*; NHOH = ON*

How the values were obtained:
Assay in all cases: biochemical
Atroxlysin-I (Atr-I) [1] = target: T1, Atroxlysin-I (Atr-I) (Bothrops atrox, UniProt P85420)
Leucurolysin-a (Leuc-a) = Leucurolysin-a (Leuc-a) (Bothrops leucurus, UniProt P84907)
Atroxlysin-I (Atr-I) [2] = target: T1, Atroxlysin-I (Atr-I); format: binding

Leucurolysin-a (Leuc-a), sequence (P84907 whole entry, looked up): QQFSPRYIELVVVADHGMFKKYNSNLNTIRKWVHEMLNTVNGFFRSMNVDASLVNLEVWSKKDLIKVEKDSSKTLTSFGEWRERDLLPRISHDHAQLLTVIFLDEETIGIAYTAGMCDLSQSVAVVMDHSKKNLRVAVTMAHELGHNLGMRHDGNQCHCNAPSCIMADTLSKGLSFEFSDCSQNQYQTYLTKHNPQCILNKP
T1 sequence (P85420 whole entry, added parts left off): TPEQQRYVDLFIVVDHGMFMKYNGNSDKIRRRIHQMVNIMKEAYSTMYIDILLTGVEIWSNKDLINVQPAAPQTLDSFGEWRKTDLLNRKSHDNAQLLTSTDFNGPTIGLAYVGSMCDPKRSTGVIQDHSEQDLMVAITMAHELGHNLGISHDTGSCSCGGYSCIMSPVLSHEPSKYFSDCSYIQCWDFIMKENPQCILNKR

Row | SMILES | Hill coef. (Atroxlysin-I (Atr-I) [1]) | IC50 (Atroxlysin-I (Atr-I) [1]) [nM] | Hill coef. (Leucurolysin-a (Leuc-a)) | IC50 (Leucurolysin-a (Leuc-a)) [nM] | Ki (Atroxlysin-I (Atr-I) [2]) [nM] | enthalpic contribution (Atroxlysin-I (Atr-I) [2]) [kcal/mol] | entropic contribution (Atroxlysin-I (Atr-I) [2]) [cal/K/mol]
1 | CNC(=O)[C@H](Cc1ccccc1)NC(=O)[C@H](CC(C)C)[C@H](CSc1cccs1)C(=O)NO [BAT, batimastat] | 0.85 | 50 ± 30 | 4.91 | 12000 ± 1000 | – | – | –
2 | CC(C)C[C@H](NC(=O)[C@@H]1CCCN1C(=O)OCc1ccccc1)C(=O)N[C@@H](C)C(=O)NO [COL, collagenase-I inhibitor] (Cbz-Pro-Leu-Ala-{NHOH}) | 2.28 | 8000 ± 2000 | 1.65 | 6000 ± 2000 | – | – | –
3 | CC(C)(NS(=O)(=O)c1ccc(Oc2ccc(F)cc2)cc1)C(=O)NO [CP4, CP471474] | 2.37 | 20 ± 10 | 0.55 | 210 ± 110 | 160 ± 10 | -3.8 | 18.4
4 | CNC(=O)[C@@H](NC(=O)[C@H](CC(C)C)[C@H](O)C(=O)NO)C(C)(C)C [MAR, marimastat] | 2.05 | 80 ± 10 | 0.78 | 690 ± 20 | 60 ± 10 | -1.5 | 28.2
5 | CNC(=O)[C@H](CCc1ccccc1)NC(=O)[C@H](CC(=O)NO)CC(C)C [MMP, mmp-III inhibitor] | 1.79 | 50 ± 10 | 1.34 | 360 ± 170 | – | – | –
6 | CC1(C)SCCN(S(=O)(=O)c2ccc(Oc3ccncc3)cc2)[C@H]1C(=O)NO [PRI, prinomastat] | 0.77 | 160 ± 10 | 1.96 | 20 ± 10 | 70 ± 50 | -0.8 | 30
